Laboratory results published in patent US20150274639A1, “METHODS OF USE FOR COMPOSITIONS COMPRISING A BIOCIDAL POLYAMINE” (Curza Global, LLC, priority 2013, published 2015).
Converted amounts (≈) assume the structure as drawn.

Key:
[1] = tested on: MRSA; test: MIC in CAMHB, 96-well plate (10^5 to 10^2 CFU/mL in 24 hours); assay type: cell-based, methicillin-resistant Staphylococcus aureus; details: Staphylococcus aureus, MRSA, Table 5, class symbols
Method: (§1) To determine the MIC of polyamine compounds, the protocol described herein was used.
In brief, a 0.5 McFarland of each bacterial isolate was made. A 0.5 McFarland is a measure of turbidity in a liquid sample that contains approximately 1×10̂^8 CFU/mL. The 0.5 McFarland standard was diluted in cation adjusted Mueller Hinton Broth (CAMHB), and […], of broth were added to a well of a 96-well plate. In addition, 50 μL of CAMHB that contained a desired concentration of antimicrobial were also added to the well for a final volume of 100 and a final concentration of approximately 5×10^4 CFU/well (which equated to approximately 5×10^5 CFU/mL). Each well contained a desired amount of polyamine compound in order to experimentally determine the MIC. Each 96-well plate was incubated at 37° C. for 24 hours. The contents of each well were plated on tryptic soy agar (TSA). TSA plates were incubated for 37° C. for 24 hours after which the number of CFU were counted and used to calculate the CFU/mL that remained after exposure to varying concentrations of compound. This procedure was repeated n=8 times for each concentration of antimicrobial. […]

[2] = tested on: P. aeruginosa; test: as above; assay type: cell-based; details: Pseudomonas aeruginosa, Table 5, class symbols
Method: as §1
In brief, a 0.5 McFarland of each bacterial isolate was made. A 0.5 McFarland is a measure of turbidity in a liquid sample that contains approximately 1×10̂^8 CFU/mL. The 0.5 McFarland standard was diluted in cation adjusted Mueller Hinton Broth (CAMHB), and […], of broth were added to a well of a 96-well plate. In addition, 50 μL of CAMHB that contained a desired concentration of antimicrobial were also added to the well for a final volume of 100 and a final concentration of approximately 5×10^4 CFU/well (which equated to approximately 5×10^5 CFU/mL). Each well contained a desired amount of polyamine compound in order to experimentally determine the MIC. Each 96-well plate was incubated at 37° C. for 24 hours. The contents of each well were plated on tryptic soy agar (TSA). TSA plates were incubated for 37° C. for 24 hours after which the number of CFU were counted and used to calculate the CFU/mL that remained after exposure to varying concentrations of compound. This procedure was repeated n=8 times for each concentration of antimicrobial.

[3] = tested on: MRSA; test: MIC against MRSA as defined by CLSI (FIG. 25 series); assay type: cell-based, methicillin-resistant Staphylococcus aureus; details: Staphylococcus aureus
Method: To determine the MIC of the polyamine chains alone and the synthesized compounds against MRSA and P. aeruginosa ATCC 27853, a modified protocol from the Clinical and Laboratory Standards Institute (CLSI) guideline M26-A was used. […] All data was collected using cation adjusted MHB for standardization.
As mentioned, MRSA and P. aeruginosa ATCC 27853 were grown on Columbia blood agar plates prior to experimentation. From the blood agar plates, a 0.5 McFarland standard was made of each isolate. This equated to approximately 5×10^7 cells/mL for the MRSA isolate and approximately 3×10^7 cells/mL for the P. aeruginosa ATCC 27853 isolate. Of the 0.5 McFarland stock solution, 50 μL were added to MHB. […] All tests were performed such that a final volume of 5 mL of MHB were obtained. This provided a final bacterial concentration of approximately 5×10^5 cells/mL.
Each sample was incubated in glass test tubes at 37° C. for 24 hours, then plated in duplicate on tryptic soy agar (TSA) using a 10-fold dilution series. TSA plates were further incubated 24 hours at 37° C. The number of colony forming units (CFU) that grew were counted in order to calculate the number of bacteria that were present per mL in the original MHB solution.

[4] = tested on: biofilms of MRSA and P. aeruginosa; details: understanding of the inventors, no own test described; cited from earlier work
[5] = tested on: biofilm formation; details: Kolodkin-Gal et al., Cell 149 (2012), cited from earlier work

Structure (SMILES) | MIC [1] [µM] | MIC [2] [µM] | also measured
NCCCCNCc1ccccc1 [CZ-3] | > 100 |  | 
CN(C)CCCNCCCNCc1ccccc1 [CZ-6] | > 100 |  | 
NCCCNCc1cccc(CNCCCN)c1 [CZ-12] |  | > 100 | 
NCCCNCCCNCCCNCc1ccccc1 [CZ-16] | > 100 |  | 
Cc1cc(C)c(CNCCCN)c(C)c1CNCCCN [CZ-19] | > 100 |  | 
NCCCNCCCNCc1cccc(CO)c1 [CZ-22] | 50 to 100 (≈ 12.6 to 25.1 µg/mL) |  | 
NCCCCCCNCc1cccc(CNCCCCCCN)c1 [CZ-26] | 50 to 100 (≈ 16.7 to 33.5 µg/mL) | > 100 | 
NCCCNCc1cc(CNCCCN)cc(CNCCCN)c1 [CZ-32] | 50 to 100 (≈ 16.8 to 33.7 µg/mL) | 50 to 100 (≈ 16.8 to 33.7 µg/mL) | MIC [3]: 45 µg/mL (≈ 134 µM)
NCCCCCCNCc1cc(CNCCCCCCN)cc(CNCCCCCCN)c1 [CZ-33] | 50 to 100 (≈ 23.1 to 46.3 µg/mL) | > 100 | 
NCCCNC(=O)c1cccc(C(=O)NCCCN)c1 [CZ-40] |  | > 100 | 
CN(C)CCCNCCCNCc1cccc(CNCCCNCCCN(C)C)c1 [CZ-43] | > 100 | > 100 | 
NCCCNCCCNCc1cc(CO)cc(CNCCCNCCCN)c1 [CZ-53] | < 50 | 50 to 100 (≈ 19.7 to 39.5 µg/mL) | 
CC(C)(C)OC(=O)NCCCNCCCNCc1cc(CNCCCNCCCN)cc(CNCCCNCCCNC(=O)OC(C)(C)C)c1 [CZ-54] | < 50 | < 50 | 
NCCCNCCCNCCCNCc1cccc(CNCCCNCCCNCCCN)c1 [CZ-57] | < 50 | > 100 | 
NCCCNCCCNCc1cc(CNCCCNCCCN)cc(-c2ccc3c(c2)OCO3)c1 [CZ-61] | < 50 | < 50 | 
NCCCNCCCNCc1cccc(-c2cc(CNCCCNCCCN)cc(CNCCCNCCCN)c2)c1 [CZ-62] | < 50 | < 50 | 
Cc1ccccc1-c1cc(CNCCCNCCCN)cc(CNCCCNCCCN)c1 [CZ-63] | < 50 | < 50 | 
NCCCNCCCNCc1ccc(-c2cc(CNCCCNCCCN)cc(CNCCCNCCCN)c2)cc1 [CZ-65] | < 50 | < 50 | 
CC(C)Oc1ccc(-c2cc(CNCCCNCCCN)cc(CNCCCNCCCN)c2)cc1CNCCCNCCCN [CZ-66] | < 50 | < 50 | 
NCCCNCCCNCc1cc(CNCCCNCCCN)cc(-c2ccc(OC(F)(F)F)c(CNCCCNCCCN)c2)c1 [CZ-69] | < 50 | < 50 | 
NCCCNCCCNCc1cc(CNCCCNCCCN)cc(-c2ccncc2)c1 [CZ-71] | < 50 | > 100 | 
COc1ccc(-c2cc(CNCCCNCCCN)cc(CNCCCNCCCN)c2)cn1 [CZ-72] | < 50 | < 50 | 
NCCCNCCCNCCCNCc1cc(CNCCCNCCCNCCCN)cc(-c2ccccc2)c1 [CZ-73] | < 50 | < 50 | 
N=C(NCCCCCCNC(=N)NC(=N)Nc1ccc(Cl)cc1)NC(=N)Nc1ccc(Cl)cc1.O=C(O)[C@H](O)[C@@H](O)[C@H](O)[C@H](O)CO.O=C(O)[C@H](O)[C@@H](O)[C@H](O)[C@H](O)CO [chlorhexidine gluconate] |  |  | biofilm dispersal effect (comparison antimicrobials) [4]: not seen
O=CCCCC=O [glutaraldehyde] |  |  | biofilm dispersal effect (comparison antimicrobials) [4]: not seen
NCCCNCCCN [norspermidine, N-(3-aminopropyl)propane-1,3-diamine] |  |  | concentration at which biofilm formation is inhibited [5]: 25 µM
NCCCCNCCCN [spermidine] |  |  | concentration at which active ([5]; only active at much higher concentrations): ~1 mM
